Test results reported in patent US20150164064A1, “METHODS, COMPOSITIONS AND DEVICES FOR INDUCING STASIS IN CELLS, TISSUES, ORGANS, AND ORGANISMS” (Fred Hutchinson Cancer Research Center, priority 2003, published 2015).
Entries after “also recorded” stand apart in the source; their conditions may differ. Like-named read-outs stand apart in the source and are kept apart here.

Experiments:
humans [1] = conditions: cited from earlier work
[2] = tested on: wild-type C. elegans embryos (Bristol N2); assay: Viability and suspended animation of nematodes in carbon monoxide based atmospheres (wild-type); assay type: in vivo
Text: To achieve specific atmospheric conditions the following apparatus was used: a glass syringe barrel having a tip with a locking device such as a LUER-LOK with the large opening of the barrel sealed with a custom-machined steel and rubber fitting to make an airtight seal was locked to via locking device to the inlet port of an environmental chamber having an inlet and an outlet port each fitted with a locking devices such as a LUER-LOK fitting. A defined gas was humidified and provided to the environmental chamber by first venting the gas from a compressed tank (Byrne Specialty Gas, Seattle, Wash.) through a gas washing bottle (500 ml Kimex) filled with double distilled water. The gas washing bottle was connected to the environmental chamber past a gas-flow meter. A gas flow meter was used to provide a regulated 70 cc/min flow through the environmental chamber throughout the 24 hr incubation.
To test whether induced, reversible stasis could be achieved in C. elegans nematodes, 2-cell C. elegans embryos, L3 larvae or adult nematodes were collected and exposed to either an environment of effectively 100% CO, an environment of 100% N2, an environment comprising 500 ppm oxygen balanced with carbon monoxide, or to environments comprising 100, 500 or 1000 ppm oxygen balanced with nitrogen at room temperature. Nematodes were visualized using differential interference contrast microscopy (also known as Nomarski optics), images were collected and analyzed using NIH image and Adobe Photoshop 5.5. Embryos are approximately 50 μm in length.
Enviromental chambers and apparati. Oxygen deprivation experiments were carried out using a custom atmospheric chamber designed by W. Van Voorhies (Van Voorhies et al., 2000). The chamber is a 30 mL glass syringe (Fisher #14-825-10B) fitted with a custom steel stopper that is lined with two viton o-rings to ensure a tight seal. The stopper is bored through and has a steel lure lock on the exterior face so that a hose carrying compressed gas can be attached. A defined gas mixture is delivered to the chamber at a constant pressure and flow rate from compressed tanks by passing first through a rotometer (Aalborg, flow-tube number 032-41ST) or mass flow controller (Sierra Instruments #810) to monitor flow rate and then through a 500 ml gas washing bottle (Fisher #K28220-5001) containing 250 ml water to hydrate the gas. ¼″ OD nylon (Cole-Parmer #P-06489-06) or FEP (Cole-Parmer #A-06450-05) tubing was used and connections between tubing and the regulators and between the tubing and the rotometers were made with brass John-Guest-type fittings (Byrne Gas). All other connections were made with either microflow quick-connect fittings (Cole-Parmer #A-06363-57, #A-06363-52) or standard lure fittings (Cole-Parmer #A-06359-37, #A-06359-17).
Viability of nematodes in hypoxia. […] Log-phase, adult C. elegans were picked into a drop of sterile water containing 100 μg/ml ampicillin, 15 μg/ml tetracycline and 200 μg/ml streptomycin on a glass plate. Adults were chopped with a razor blade and 2-cell embryos were picked using a mouth pipet. 30-60 2-cell embryos were transferred to a small glass boat (custom made to fit atmospheric chambers, Avalon Glass Works, Seattle Wash.) filled with 3 ml of 1% agarose in M9. […] Embryos were scored for hatching 24 hours after exposure and hatched L1's were transferred to the surface of the NGM plate and followed to adulthood. […]

hif-1(ia04) embryos = assay: Viability and suspended animation of nematodes in carbon monoxide based atmospheres (hif-1 mutant); assay type: in vivo, C. elegans
Text: Viability of nematodes in carbon monoxide based atmospheres. 30-60 embryos were harvested from continuously maintained Bristol N2 and […] strains as described above. Environmental chambers were continuously perfused at room temperature with pure CO (grade CP) or 500 ppm O2/CO at 70 cc/min for 24 hrs. To achieve 2500 ppm O2/CO or 2500 ppm O2/N2, 5000 ppm O2/N2 was mixed at a 1:1 ratio with either pure CO or pure N2 using two mass flow controllers (Sierra Instruments 810) to precisely monitor flow. Each gas was delivered into a 3-way valve (Cole-Parmer #A-30600-23) at 50 cc/min and the resulting mixture was then passed through a gas washing bottle and into an environmental chamber throughout the 24 hour exposure. All gases were supplied by Byrne Gas (Seattle, Wash.). The 500 ppm O2/CO mixture was certified to ±2% of the oxygen content and contained […] to ensure a consistent O2/CO ratio throughout the use of the tank.
Cell biological analysis. To determine the extent of developmental progression in nitrogen-based atmospheres (Table 2), 2-cell embryos were exposed to various degrees of hypoxia as described above and were either immediately photographed, or photographed following a […] recovery period in a humid chamber. […]

human keratinocytes = assay: Preservation of human skin in carbon monoxide; keratinocyte growth and colony formation; assay type: cell-based
Experimental: Three human foreskins were obtained for this purpose. The foreskin tissue was preserved in keratinocyte growth medium (KGM) containing insulin, EGF (0.1 ng/ml), hydrocortisone ([…]) and bovine pituitary extract (approx. 50 micrograms/ml of protein). Foreskins were rinsed in PBS, and excess fatty tissue was removed. Each foreskin sample was divided into 2 equal pieces. Each piece was placed into a separate container containing a solution of PBS with 24 mg/ml of Dispase II (from Bacillus Polmyxa EC 3.4.24.4:Roche Diagnostics Corp., Indianapolis, Ind.). One container (containing a foreskin piece in PBS with Dispase II) was kept in a humid chamber in a fume hood. The other container (with the other half of the foreskin in PBS with Dispase II) was placed in the same fume hood in an environmental chamber perfused with humidified 100% CO. Both samples were maintained at room temperature for 24 hrs. Methods used to establish defined atmospheric conditions were identical to those used in Example 1. […]
Cells were inspected visually using an inverted phase contrast microscope. […] Quantitation of the number of viable keratinocytes as judged by colony formation was quantified for two of the three foreskins.

rats = conditions: cited from earlier work
mice [3] = tested on: mice
mice [4] = assay: Core body temperature, heart rate and movement of mice by telemetry in regulated H2S atmosphere; assay type: in vivo, mouse; conditions: 80 ppm
Text: Implantation of telemetry devices.
Exposure of Mice to Regulated Atmosphere.
Regulation of Ambient Temperature. […] Mice were exposed to regulated atmosphere as described above.

humans [5] = conditions: 500 ppm; cited from earlier work
mice [6] = conditions: 80 ppm, cited from earlier work

**Q.** What does the source list for `[C-]#[O+]` [CO, carbon monoxide]?
**A.** symptoms in humans (humans [1]; 50 ppm): no symptoms; symptoms in humans (humans [1]; 200 ppm, within two-three hours): slight headache; symptoms in humans (humans [1]; 400 ppm, within one to two hours): frontal headache; symptoms in humans (humans [1]; 800 ppm, within 45 minutes): dizziness, nausea, and/or convulsions; symptoms in humans (humans [1]; 800 ppm, within two hours): insensible; lethality (humans [1]; around 1000 ppm, exposure more than around 1-2 minutes): can expire; suspended animation ([2]; 0.25 kPa O2 balanced with carbon monoxide, wild-type): entered into suspended animation; suspended animation ([2]; 100% CO (101 kPa CO), 24 hrs): entered into suspended animation; suspended animation ([2]; 100% CO (101 kPa CO), 24 hrs, listed as carbon monoxide): induced reversible suspended animation; lethality to nematodes ([2]; 100% CO, 24 hr, room temperature): not lethal; suspended animation and survival ([2]; 500 ppm oxygen (0.05 kPa O2) balanced with carbon monoxide, 24 hrs): entered into suspended animation and survived; also recorded: arrested embryogenesis; viability (survival) to adulthood (hif-1(ia04) embryos; 0.25 kPa O2/CO, 24 hrs, hif-1(ia04) embryos): 84.0%; suspended animation (hif-1(ia04) embryos; 0.25 kPa O2 balanced with carbon monoxide, hif-1(ia04)): entered into suspended animation; keratinocyte growth (visual inspection) (human keratinocytes; all three populations, 100% CO 24 hr): significant growth; cell survival in CO relative to room air (human keratinocytes; human skin, 100% CO, after 24 hrs): 100 fold

**Q.** Which results are given for `S` [H2S, hydrogen sulfide]?
**A.** perinatal exposure effect on cerebellar Purkinje cells (rats; 20 or 50 ppm, 7 hours per day, gestation through post-natal day 21): longer dendritic branches with reduced aborization of cerebellar Purkinje cells; perinatal study, neuropathology and behavior of rat pups (rats; 80 ppm): no neuropathological effects or altered motor activity, passive avoidance, or acoustic startle response; behavioral toxicity, avoidance responses (rats; moderate levels, immediately after end of exposure): inhibits discriminated avoidance responses; behavioral toxicity, maze learning (rats; moderate levels): interferes with the ability of rats to learn a baited radial arm maze task; toxicology, gross and histopathological examination (rats; rats, 80 ppm, 6 hrs per day, 5 days per week, 90 days): no observed adverse effect; behavior compared to untreated animals (mice [3]; after 80 ppm, cabinet 10.5°C): no apparent change in the behavior; behavior tests (SHIRPA protocol) before and after exposure (mice [3]; after gas exposure): no detectable behavioral differences; behavior of the animals (mice [3]; four mice maintained for 4 weeks after 80 ppm, 6 hr, 15°C): no apparent change in the behavior; core body temperature repeatedly reached on demand (mice [4]): 13-15 °C; acute effect of extreme levels (humans [5]): sudden collapse and unconsciousness; tolerability (mice [6]; exposures up to ten weeks): innocuous; toxicology, gross and histopathological examination (mice [6]; mice, 6 hrs per day, 5 days per week, 90 days): no observed adverse effect
